The text below walks through data of patent US10517862B2, “Fused heterocyclic compound derivative and application thereof” (NHWA PHARMA. CORPORATION, priority 2015, dated 2019).

For experiment [1], the system named is α1 norepinephrine receptor. The experiment in a line: α1 norepinephrine receptor binding assay (3H-prazosin, rat cortex membrane). The conditions noted are these: for α1 Inhibition rate (%): test compound final concentration 10^−5 M, 3H-prazosin, rat cortex membrane. The text has this: Preparation of Receptor Membrane of Norepinephrine
α1 Norepinephrine Receptor Binding Assay

Experiment [2] concerns the target T1, 5HT2C receptor (Rattus norvegicus, UniProt P08909).
T1 construct: from tissue; host or cells: rat brain striatum
T1 sequence (P08909 33-460): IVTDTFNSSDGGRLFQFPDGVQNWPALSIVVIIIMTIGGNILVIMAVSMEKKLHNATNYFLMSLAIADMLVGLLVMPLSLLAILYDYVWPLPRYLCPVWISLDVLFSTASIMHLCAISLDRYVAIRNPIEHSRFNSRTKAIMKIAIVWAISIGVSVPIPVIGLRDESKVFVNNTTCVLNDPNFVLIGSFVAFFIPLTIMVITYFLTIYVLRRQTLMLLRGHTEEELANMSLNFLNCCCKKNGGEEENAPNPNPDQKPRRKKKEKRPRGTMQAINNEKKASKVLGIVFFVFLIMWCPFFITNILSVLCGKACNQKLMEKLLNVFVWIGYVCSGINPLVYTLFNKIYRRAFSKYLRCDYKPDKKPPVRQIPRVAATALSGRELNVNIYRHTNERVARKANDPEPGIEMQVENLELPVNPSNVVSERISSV
The experiment in a line: 5HT2C receptor binding assay ([3H]-mesulergine, rat striatum membrane). The conditions noted are these: for inhibition at 10 µM: test compound final concentration 10^−5 M, [3H]-mesulergine, rat striatum membrane, read-out: 5HT2C Inhibition rate (%). The protocol: Preparation of 5HT2C Membrane
Rats were decapitated on ice. […] Centrifugation was conducted.
(§1) Materials for the Receptor Binding Assay

For experiment [3], the system named is D2 receptor. The experiment can be described thus: D2 receptor binding assay (3H-Spiperone, rat striatum membrane). The conditions noted are these: for D2 Inhibition rate (%): test compound final concentration 10^−5 M, 3H-Spiperone, rat striatum membrane. The protocol: Preparation of D2 Membrane
Rats were decapitated on ice. […] The weight of the homogenized tubes were adjusted using a balance, and centrifugation was conducted. […] Centrifugation was conducted.
as §1

Experiment [4] deals with T2, 5HT1A receptor (Rattus norvegicus, UniProt P19327).
T2 construct: Rats were decapitated on ice; from tissue; host or cells: rat brain striatum
T2 sequence (P19327 1-422): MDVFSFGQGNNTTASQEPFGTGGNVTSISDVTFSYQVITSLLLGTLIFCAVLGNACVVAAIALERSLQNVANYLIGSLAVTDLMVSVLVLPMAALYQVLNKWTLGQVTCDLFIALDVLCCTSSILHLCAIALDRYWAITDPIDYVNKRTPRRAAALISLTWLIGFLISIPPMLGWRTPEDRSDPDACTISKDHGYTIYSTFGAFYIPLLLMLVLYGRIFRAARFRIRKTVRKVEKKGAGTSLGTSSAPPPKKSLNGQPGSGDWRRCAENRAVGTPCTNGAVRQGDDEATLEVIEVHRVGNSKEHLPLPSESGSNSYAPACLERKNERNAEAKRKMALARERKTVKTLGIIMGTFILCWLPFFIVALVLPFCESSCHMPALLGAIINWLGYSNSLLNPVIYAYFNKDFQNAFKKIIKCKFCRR
The experiment in a line: 5HT1A receptor binding assay (3H-8-OH-DPAT, rat striatum membrane). The conditions noted are these: for inhibition at 10 µM: test compound final concentration 10^−5 M, 3H-8-OH-DPAT, rat striatum membrane, read-out: 5HT1A Inhibition rate (%). The protocol: Preparation of 5HT1A Membrane
Rats were decapitated on ice. […] Incubation at 37° C. was conducted for 10 min. […] Centrifugation was conducted at 12000 rpm, 4° C. for 20 min. […] Centrifugation was conducted and repeated 3 times.
as §1

The target in experiment [5] is T3, D3 receptor (Homo sapiens, UniProt P35462).
T3 construct: expressed in transfected cells; host or cells: HEK-293
T3 sequence (P35462 whole entry): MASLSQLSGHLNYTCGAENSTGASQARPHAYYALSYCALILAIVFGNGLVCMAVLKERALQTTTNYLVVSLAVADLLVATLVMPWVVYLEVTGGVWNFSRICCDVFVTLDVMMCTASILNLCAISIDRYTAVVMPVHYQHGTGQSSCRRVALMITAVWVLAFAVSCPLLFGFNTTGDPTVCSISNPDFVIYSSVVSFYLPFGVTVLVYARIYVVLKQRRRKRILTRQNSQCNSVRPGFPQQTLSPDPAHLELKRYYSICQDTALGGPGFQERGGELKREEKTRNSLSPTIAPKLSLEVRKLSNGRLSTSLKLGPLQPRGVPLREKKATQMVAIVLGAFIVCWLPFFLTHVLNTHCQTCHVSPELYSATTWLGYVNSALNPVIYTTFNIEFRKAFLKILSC
The experiment in a line: D3 receptor assay ([3H]-Spiperone, HEK-293 cells). It counts as binding. The conditions noted are these: for inhibition at 10 µM: test compound final concentration 10 μmol/L, [3H]-Spiperone, HEK-293 cells, read-out: D3 Inhibition rate (%). As for the experimental part:
Then the cells were centrifuged at 1000 rpm for 5 min, the supernatant was discarded, and the cell pellets was collected and stored in a −20° C. fridge for reservation. It was re-suspended with Tris-Cl (pH 7.4) when the assay was performed.
Tris was divided into aliquots by Genetimes Technology Inc.
Competitive binding test for receptors: 20 μl of each of the test compounds and 20 μl of the radioactive ligand together with 160 μl of the receptor proteins were added into the reaction tubes, and the final concentrations of the test compound and the positive drug were all 10 μmol/L. After 50 min of incubation in 30° C. water bath, the tubes were immediately moved to ice bath to terminate the reactions. GF/C glass fiber filter papers were used for rapid sucking filtration on a Millipore cell sample collector, 3 ml of elution buffer (50 mM Tris-HCl, PH 7.4) was applied for 3 times, and microwave was applied for 4-5 min for drying. The filter paper was moved into 0.5 ml centrifuge tube, and 500 μl of liposoluble scintillation cocktail was added. The tubes were allowed to stand still for over 30 min in dark, and the intensities of radioactivity were measured by a counter.

Experiment [6] has as its target 5HT2A receptor (Rattus norvegicus, UniProt P14842). The experiment can be described thus: 5HT2A receptor binding assay ([3H]-Ketanserin, rat striatum membrane). The conditions noted are these: for inhibition at 10 µM: read-out: 5HT2A Inhibition rate (%).
For experiment [7], the target named is Histamine H1 receptor (Rattus norvegicus, UniProt P31390). The experiment can be described thus: Histamine H1 receptor binding assay (3H-pyrilamine, rat cerebellum membrane). The conditions noted are these: for inhibition at 10 µM: read-out: H1 Inhibition rate (%).
Chain of Histamine H1 receptor (P31390 whole entry): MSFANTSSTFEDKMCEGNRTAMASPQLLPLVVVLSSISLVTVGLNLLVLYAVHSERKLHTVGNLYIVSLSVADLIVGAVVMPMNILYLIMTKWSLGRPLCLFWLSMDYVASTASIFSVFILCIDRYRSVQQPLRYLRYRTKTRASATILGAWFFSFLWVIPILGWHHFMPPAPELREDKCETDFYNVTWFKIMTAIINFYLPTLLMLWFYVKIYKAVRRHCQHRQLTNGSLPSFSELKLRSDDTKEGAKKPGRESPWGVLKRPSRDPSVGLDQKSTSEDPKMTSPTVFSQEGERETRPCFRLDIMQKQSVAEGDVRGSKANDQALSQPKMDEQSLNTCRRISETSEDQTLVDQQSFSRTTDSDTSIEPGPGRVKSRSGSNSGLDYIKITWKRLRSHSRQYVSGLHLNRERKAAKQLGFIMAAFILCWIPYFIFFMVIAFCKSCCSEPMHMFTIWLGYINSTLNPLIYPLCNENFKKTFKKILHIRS
Method: The supernatant was discarded to give pellets, and homogenate F was added again to the pellets for washing. Centrifugation was conducted and repeated 3 times.
(2) 100 μL of membrane preparation was added into each reaction tube.
Experiment [8] deals with mice of Kunming breed. The experiment in a line: Apomorphine induced clambering assay of mice. The format is in vivo. The conditions noted are these: for ED50: Mus musculus, 1 h, read-out: Apomorphine induced clambering (ED50, po, mg/kg). As for the experimental part: Healthy mice of Kunming breed (KM) (male, with body weight of 18-22 g) were provided by Qinglongshan Animal Cultivation Center, Nanjing.
Apomorphine provided by Sigma Company was dissolved in 0.9% NaCl (containing 0.1% vitamin C) before use, and was freshly formulated before use.
Vitamin C, F20061113, was provided by Sinopharm Chemical Reagent Co. Ltd.
Sodium chloride injection, H32026305, was provided by Xuzhou No. 5 Pharmaceutical Factory Co. Ltd.
Instruments: self-made clambering cage, chronograph.
Procedures: apomorphine induced clambering assay of mice
After 5 min of adaptation, the behavior of the mice at 10-11, 20-21, and 30-31 min after the injection of apomorphine were observed and scored. Scoring criteria: the behavior of 4 paws on the floor was scored as 0; the behavior of 2 forepaws on the cage was scored as 1; and the behavior of 4 paws on the cage was scored as 2.

Each structure is given as a SMILES string.

Chain of 5HT2A receptor (P14842 whole entry): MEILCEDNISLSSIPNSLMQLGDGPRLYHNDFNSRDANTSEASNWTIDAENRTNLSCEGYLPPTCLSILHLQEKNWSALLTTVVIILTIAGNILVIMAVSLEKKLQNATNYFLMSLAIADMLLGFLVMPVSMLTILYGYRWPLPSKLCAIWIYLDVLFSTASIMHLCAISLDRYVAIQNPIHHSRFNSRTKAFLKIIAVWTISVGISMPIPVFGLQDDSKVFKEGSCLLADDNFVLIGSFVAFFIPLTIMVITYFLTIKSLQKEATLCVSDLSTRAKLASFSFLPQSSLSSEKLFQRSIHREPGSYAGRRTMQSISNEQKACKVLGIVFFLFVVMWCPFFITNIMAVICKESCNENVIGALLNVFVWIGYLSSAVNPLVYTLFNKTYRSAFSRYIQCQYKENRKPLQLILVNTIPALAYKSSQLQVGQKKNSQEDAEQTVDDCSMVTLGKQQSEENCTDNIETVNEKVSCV

With `O=C1CCc2cc(CCCCN3CCC(c4noc5cc(F)ccc45)CC3)cc3c2N1CC3` [Compound 17], in experiment [1] (summary of in vitro assay), the “affinity with α1 (in words)” value is given as “low affinities”. Moreover, the “α1 Inhibition rate (%)” value in experiment [1] turned out to be 46.62%. The “affinity with 5HT2C (in words)” value in experiment [2] (summary of in vitro assay) was “low affinities”. The inhibition (commonly the change of the read-out against control, counted positive when it falls) at 10 µM in experiment [2] turned out to be 51.1%; in experiment [4] it was 99.1%; in experiment [5], 96.2%; in experiment [6], 99.4%; in experiment [7] it was 35.4%. For the same compound, the “affinity with D2 (in words)” value in experiment [3] (summary of in vitro assay) is recorded as “high affinities”. Also, the “D2 Inhibition rate (%)” value in experiment [3] turned out to be 99.17%. For the same compound, in experiment [4] (summary of in vitro assay), the “affinity with 5HT1A (in words)” value is recorded as “high affinities”. The “affinity with D3 (in words)” value in experiment [5] (summary of in vitro assay) is “high affinities”. In addition, the “affinity with 5HT2A (in words)” value in experiment [6] (summary of in vitro assay) is recorded as “high affinities”. Moreover, in experiment [7] (summary of in vitro assay), the “affinity with H1 (in words)” value is given as “low affinities”.
In the case of `O=C(CCCCN1CCC(c2noc3cc(F)ccc23)CC1)c1cc2c3c(c1)CCN3C(=O)CC2` [Compound 18], the “α1 Inhibition rate (%)” value in experiment [1] was determined as 56.48%. In addition, the inhibition at 10 µM turned out to be 54.3% in experiment [2]; 84.3% in experiment [4]; 98.1% in experiment [5]; 87.8% in experiment [6]; 37.8% in experiment [7]. Moreover, in experiment [3], the “D2 Inhibition rate (%)” value came to 88.10%.
For `O=C1CCc2cc(C(O)CCCCN3CCC(c4noc5cc(F)ccc45)CC3)cc3c2N1CC3` (stereo not shown) [Compound 19], the “α1 Inhibition rate (%)” value in experiment [1] stood at 52.47%. Besides, the inhibition at 10 µM amounted to 57.1% in experiment [2]; 87.1% in experiment [4]; 91.5% in experiment [5]; 81.1% in experiment [6]; 41.1% in experiment [7]. Moreover, in experiment [3], the “D2 Inhibition rate (%)” value is recorded as 81.45%.
Regarding `O=C1CCc2cc(CCCCCN3CCC(c4noc5cc(F)ccc45)CC3)cc3c2N1CC3` [Compound 20], the “α1 Inhibition rate (%)” value in experiment [1] amounted to 68.86%. Moreover, the inhibition at 10 µM is 53% in experiment [2]; 83% in experiment [4]; 93.2% in experiment [5]; 80.3% in experiment [6]; 49.3% in experiment [7]. In addition, the “D2 Inhibition rate (%)” value in experiment [3] worked out at 83.23%.
On to `O=C(CCCN1CCC(c2noc3cc(F)ccc23)CC1)c1cc2c3c(c1F)CCN3C(=O)CC2` [Compound 21], for which the “α1 Inhibition rate (%)” value in experiment [1] is recorded as 46.78%. The inhibition at 10 µM in experiment [2] came out at 67.9%; in experiment [4], 93.3%; in experiment [5] it was 90.1%; in experiment [6], 91.1%; in experiment [7], 54.3%. The “D2 Inhibition rate (%)” value in experiment [3] was 92.01%.
For the compound `O=C(CCCN1CCC(c2noc3cc(F)ccc23)CC1)c1cc2c3c(c1F)CCC(=O)N3CC2` [Compound 22], in experiment [1], the “α1 Inhibition rate (%)” value is 53.46%. The inhibition at 10 µM in experiment [2] was 76.3%; in experiment [4], 91.2%; in experiment [5], 91.2%; in experiment [6] it was 90.2%; in experiment [7] it was 45.2%. Moreover, in experiment [3], the “D2 Inhibition rate (%)” value came out at 93.12%.
With `Cc1cc2c(s1)Nc1ccccc1N=C2N1CCN(C)CC1` [olanzapine], in experiment [8], the ED50 was 0.11 mg/kg.
Turning to `Cc1nc2n(c(=O)c1CCN1CCC(c3noc4cc(F)ccc34)CC1)CCCC2` [risperidone], in experiment [8], the ED50 is 0.015 mg/kg. Besides, the “effect on apomorphine induced clambering symptoms (in words)” value in experiment [8] (compared with the model group, mice) was “effectively improve”.
